Laboratory results reported in patent US9464060B2, “Compounds” (TAKEDA PHARMACEUTICAL COMPANY LIMITED, priority 2013, dated 2016).

What was measured:
[1] = target: LPA5 receptor (Homo sapiens (Human), UniProt Q9H1C0); assay: In vitro LPA5 receptor assay (LPA-driven intracellular calcium release, FLIPR); format: cell-based; details: RH7777 cells expressing human LPA5 receptors; LPA at EC90
Protocol: In Vitro LPA5 Receptor Assay
(§1) Engagement of the LPA5 receptor by its ligand, oleoyl-L-α-lysophosphatidic acid (LPA), leads to the release of intracellular stores of calcium into the cytoplasm mediated through a Gq-driven increase in inositol triphosphate (IP3) levels. Gq is a heterotrimeric G protein subunit that activates phospholipase C.
The ability of test compounds to prevent LPA-driven intracellular release of stored calcium from RH7777 cells expressing human LPA5 receptors was assayed by stimulating the cells with LPA in the presence of various test compounds to measure the test compounds'antagonism, i.e. activity in vitro.
(§2) Approximately 10,000 cells in normal culture medium (Minimal Essential Media, 10% Foetal Calf Serum) were dispensed per assay well in a black clear bottom poly-D-lysine coated 384 well plate (Corning). Cells were allowed to settle for thirty minutes at room temperature before being incubated overnight at 37° C., 5% CO2. Sixteen to twenty hours after dispensing, the cells were loaded with a calcium-sensitive fluorescent dye by replacing the culture medium with assay buffer (1× Hanks buffered saline, 25 mM HEPES, 0.1% w/v fatty acid free BSA (bovine serum albumin), pH7.4) containing 1.25 mM probenecid and 1× Calcium 5 Reagent (Molecular Devices). Cells were incubated at 37° C. for one hour to allow for dye uptake.
(§3) To test for antagonist activity, test compounds at a final concentration range between 0.32 nM-10 μM (diluted in assay buffer) were added to the assay wells and allowed to incubate for fifteen minutes. […] Ligand-dependent changes in intracellular calcium levels were determined by measuring changes in fluorescence of the dye over […] following excitation over […].

[2] = target: human LPA1 receptors (Homo sapiens (Human), UniProt Q92633); assay: In vitro LPA1 receptor assay (LPA-driven intracellular calcium release, FLIPR); format: cell-based; details: RH7777 cells expressing human LPA1 receptors; LPA at EC80
human LPA1 receptors, sequence (Q92633 whole entry): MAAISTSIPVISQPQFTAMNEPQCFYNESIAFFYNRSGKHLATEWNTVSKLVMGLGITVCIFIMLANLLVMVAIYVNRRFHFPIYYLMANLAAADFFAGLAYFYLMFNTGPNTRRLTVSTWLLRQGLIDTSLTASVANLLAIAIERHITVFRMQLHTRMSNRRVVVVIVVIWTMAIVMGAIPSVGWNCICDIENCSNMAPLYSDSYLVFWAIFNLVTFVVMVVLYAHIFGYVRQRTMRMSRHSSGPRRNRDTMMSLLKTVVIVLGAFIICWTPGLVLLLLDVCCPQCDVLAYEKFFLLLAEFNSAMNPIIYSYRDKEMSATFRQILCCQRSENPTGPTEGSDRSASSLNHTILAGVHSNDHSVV
Protocol: In Vitro LPA1 Receptor Assay
as §1, with “LPA1” for “LPA5”
The ability of test compounds to prevent LPA-driven intracellular release of stored calcium from RH7777 cells expressing human LPA1 receptors was assayed by stimulating the cells with LPA in the presence of various test compounds to measure the test compounds' antagonism, i.e. activity in vitro.
as §2, with “(Dulbecco's Modified Eagle” for “(Minimal Essential”, “collagen” for “poly-D-lysine”, “(Beckton Dickinson).” for “(Corning).”
as §3, with “twenty five” for “fifteen”

LPA5 receptor, sequence (Q9H1C0 whole entry): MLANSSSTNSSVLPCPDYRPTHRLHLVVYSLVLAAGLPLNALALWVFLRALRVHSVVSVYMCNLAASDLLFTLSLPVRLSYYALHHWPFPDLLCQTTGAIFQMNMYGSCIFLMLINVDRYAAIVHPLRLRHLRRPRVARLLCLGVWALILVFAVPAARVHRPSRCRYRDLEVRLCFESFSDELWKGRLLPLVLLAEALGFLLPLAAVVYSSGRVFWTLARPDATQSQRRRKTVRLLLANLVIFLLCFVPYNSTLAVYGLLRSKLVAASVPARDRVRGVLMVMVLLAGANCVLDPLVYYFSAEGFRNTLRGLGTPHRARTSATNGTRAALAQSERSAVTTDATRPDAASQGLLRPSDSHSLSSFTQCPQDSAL

IC50 [1]	IC50 [2]	SMILES
2 nM	1 nM	O=C(O)c1ccc(CN(C[C@@H]2C[C@H]2c2ccccc2)C(=O)c2ccc(Oc3ccccc3F)cc2)cc1 (relative stereo) [Example 18, 4-((4-(2-Fluorophenoxy)-N-((trans-2-phenylcyclopropyl)methyl)-benzamido)methyl)benzoic acid]
29 nM	14 nM	Cc1ccccc1Oc1ccc(C(=O)N(CCc2ccccc2)Cc2ccc(C(=O)O)cc2)cc1 [Example 25, 4-((N-Phenethyl-4-(o-tolyloxy)benzamido)methyl)benzoic acid]
17 nM	19 nM	Cc1cccc(C)c1Oc1ccc(C(=O)N(Cc2ccccc2)Cc2ccc(C(=O)O)cc2)cc1 [Example 46, 4-((N-Benzyl-4-(2,6-dimethylphenoxy)benzamido)methyl)benzoic acid]
140 nM	47 nM	Cc1ccccc1Oc1ccc(C(=O)N(Cc2ccc(C(=O)O)cc2)CC(F)(F)F)cc1 [Example 70, 4-((4-(o-Tolyloxy)-N-(2,2,2-trifluoroethyl)benzamido)methyl)benzoic acid]
12 nM	12 nM	COc1ccccc1Oc1ccc(C(=O)N(Cc2ccc(C(=O)O)cc2)CC(C)C)cc1 [Example 30, 4-((N-Isobutyl-4-(2-methoxyphenoxy)benzamido)methyl)benzoic acid]
9 nM	5 nM	CCCN(Cc1ccc(C(=O)O)cc1)C(=O)c1ccc(Oc2ccccc2OC)cc1 [Example 62, 4-((4-(2-Methoxyphenoxy)-N-propylbenzamido)methyl)benzoic acid]
22 nM	31 nM	CCCCN(Cc1ccc(C(=O)O)cc1)C(=O)c1ccc(Oc2ccccc2F)cc1 [Example 75, 4-((N-Butyl-4-(2-fluorophenoxy)benzamido)methyl)benzoic acid]
42 nM	29 nM	O=C(O)c1ccc(CN(CC(F)(F)F)C(=O)c2ccc(Oc3ccccc3Cl)cc2)cc1 [Example 72, 4-((4-(2-Chlorophenoxy)-N-(2,2,2-trifluoroethyl)benzamido)methyl)benzoic acid]
140 nM	130 nM	CCN(Cc1ccc(C(=O)O)cc1)C(=O)c1ccc(Oc2ccccc2Cl)cc1 [Example 76, 4-((4-(2-Chlorophenoxy)-N-ethylbenzamido)methyl)benzoic acid]
11 nM	22 nM	Cc1cccc(C)c1Oc1ccc(C(=O)N(CCc2ccccc2)Cc2ccc(C(=O)O)cc2)cc1 [Example 47, 4-((4-(2,6-Dimethylphenoxy)-N-phenethylbenzamido)methyl)benzoic acid]
5 nM	4 nM	COc1ccccc1Oc1ccc(C(=O)N(Cc2ccc(C(=O)O)cc2)CC2CC2)cc1 [Example 31, 4-((N-(Cyclopropylmethyl)-4-(2-methoxyphenoxy)benzamido)-methyl)benzoic acid]
26 nM	27 nM	O=C(O)c1ccc(CN(CC2CC2)C(=O)c2ccc(Oc3ccccc3F)cc2F)cc1 [Example 54, 4-((N-(Cyclopropylmethyl)-2-fluoro-4-(2-fluorophenoxy)-benzamido)methyl)benzoic acid]
0.4 nM	2 nM	COc1ccccc1Oc1ccc(C(=O)N(CCCc2ccccc2)Cc2ccc(C(=O)O)cc2)cc1 [Example 32, 4-((4-(2-Methoxyphenoxy)-N-(3-phenylpropyl)benzamido)-methyl)benzoic acid]
9 nM	7 nM	O=C(O)c1ccc(CN(C[C@@H](O)Cc2ccccc2)C(=O)c2ccc(Oc3ccccc3F)cc2)cc1 [Example 19, (S)-4-((4-(2-Fluorophenoxy)-N-(2-hydroxy-3-phenylpropyl)benzamido)methyl)benzoic acid]
68 nM	94 nM	COc1ccc(F)cc1Oc1ccc(C(=O)N(Cc2ccc(C(=O)O)cc2)CC2CC2)cc1 [Example 79, 4-((N-(Cyclopropylmethyl)-4-(5-fluoro-2-methoxyphenoxy)benzamido)methyl)benzoic acid]
24 nM	24 nM	O=C(O)c1ccc(CN(CCc2ccccc2)C(=O)c2ccc(Oc3ccccc3Cl)cc2)cc1 [Example 36, 4-((4-(2-Chlorophenoxy)-N-phenethylbenzamido)methyl)benzoic acid]
74 nM	86 nM	O=C(O)c1ccc(CN(CC2CC2)C(=O)c2ccc(Oc3ccccc3F)cn2)cc1 [Example 77, 4-((N-(Cyclopropylmethyl)-5-(2-fluorophenoxy)picolinamido)methyl)benzoic acid]
170 nM	390 nM	O=C(O)c1ccc(CN(CC(F)F)C(=O)c2ccc(Oc3ccccc3Cl)cc2)cc1 [Example 78, 4-((4-(2-Chlorophenoxy)-N-(2,2-difluoroethyl)benzamido)methyl)benzoic acid]
140 nM	36 nM	O=C(O)c1ccc(CN(CCC2CC2)C(=O)c2ccc(Oc3c(F)cccc3F)cc2)cc1 [Example 38, 4-((N-(2-Cyclopropylethyl)-4-(2,6-difluorophenoxy)benzamido)-methyl)benzoic acid]
91 nM	170 nM	COc1ccccc1Oc1cnc(C(=O)N(Cc2ccc(C(=O)O)cc2)CC2CC2)nc1 [Example 84, 4-((N-(Cyclopropylmethyl)-5-(2-methoxyphenoxy)pyrimidine-2-carboxamido)methyl)benzoic acid]
10 nM	7 nM	COc1ccccc1Oc1ccc(C(=O)N(Cc2ccc(C(=O)O)cc2)CC(C)(F)F)cc1 [Example 63, 4-((N-(2,2-Difluoropropyl)-4-(2-methoxyphenoxy)-benzamido)methyl)benzoic acid]
3 nM	4 nM	COc1cccc(CN(Cc2ccc(C(=O)O)cc2)C(=O)c2ccc(Oc3ccccc3F)cc2)c1 [Example 13, 4-((4-(2-Fluorophenoxy)-N-(3-methoxybenzyl)benzamido)-methyl)benzoic acid]
350 nM	540 nM	O=C(O)c1ccc(CN(CC2CC2)C(=O)c2ncc(Oc3ccccc3F)cn2)cc1 [Example 83, 4-((N-(Cyclopropylmethyl)-5-(2-fluorophenoxy)pyrimidine-2-carboxamido)methyl)benzoic acid]
43 nM	35 nM	O=C(O)c1ccc(CN(CC(F)(F)F)C(=O)c2ccc(Oc3ccccc3F)cc2)cc1 [Example 3, 4-((4-(2-Fluorophenoxy)-N-(2,2,2-trifluoroethyl)benzamido)-methyl)benzoic acid]
60 nM	33 nM	CCCN(Cc1ccc(C(=O)O)cc1)C(=O)c1ccc(Oc2ccccc2F)cc1 [Example 60, 4-((4-(2-Fluorophenoxy)-N-propylbenzamido)methyl)benzoic acid]
0.4 nM	0.3 nM	COc1ccccc1Oc1ccc(C(=O)N(CCCc2cccc(F)c2)Cc2ccc(C(=O)O)cc2)cc1 [Example 33, 4-((N-(3-(3-Fluorophenyl)propyl)-4-(2-methoxyphenoxy)-benzamido)methyl)benzoic acid]
45 nM	110 nM	CCCN(Cc1ccc(C(=O)O)cc1)C(=O)c1ccc(Oc2ccc(F)cc2OC)cc1 [Example 80, 4-((4-(4-Fluoro-2-methoxyphenoxy)-N-propylbenzamido)methyl)benzoic acid]
24 nM	30 nM	Cc1ccccc1Oc1ccc(C(=O)N(Cc2ccc(C(=O)O)cc2)CC2CC2)cc1 [Example 22, 4-((N-(Cyclopropylmethyl)-4-(o-tolyloxy)benzamido)methyl)benzoic acid]
7 nM	9 nM	COc1ccccc1Oc1ccc(C(=O)N(CCC(F)(F)F)Cc2ccc(C(=O)O)cc2)cc1 [Example 64, 4-((4-(2-Methoxyphenoxy)-N-(3,3,3-trifluoropropyl)-benzamido)methyl)benzoic acid]
28 nM	25 nM	O=C(O)c1ccc(CN(CC2CC2)C(=O)c2ccc(Oc3c(F)cccc3F)cc2)cc1 [Example 37, 4-((N-(Cyclopropylmethyl)-4-(2,6-difluorophenoxy)benzamido)-methyl)benzoic acid]
